Experimental data taken from patent US11654132B2, “Methods for treating COVID-19” (priority 2020, dated 2023).
Read-outs that look alike come from different tables or passages of the source.

Key:
SARS-CoVid-2 infection = conditions: combined with azithromycin; cited from earlier work
[1] = tested on: Lipopolysaccharide stimulated IL-1B production; conditions: ex-vivo; active metabolite; cited from earlier work
CYP = conditions: cited from earlier work
[2] = cited from earlier work; for in vivo activity: oral and/or intravenous administration, prodrug vs active form
chronic HCV = conditions: cited from earlier work
[3] = NASH patients; cited from earlier work
[4] = in vivo; cited from earlier work
[5] = in vivo; cited from earlier work; remark: listed apart in the source
CYP3A4 = CYP3A4 (Homo sapiens, UniProt P08684); conditions: recombinant enzyme system; cited from earlier work
CYP3A4, sequence (P08684 whole entry): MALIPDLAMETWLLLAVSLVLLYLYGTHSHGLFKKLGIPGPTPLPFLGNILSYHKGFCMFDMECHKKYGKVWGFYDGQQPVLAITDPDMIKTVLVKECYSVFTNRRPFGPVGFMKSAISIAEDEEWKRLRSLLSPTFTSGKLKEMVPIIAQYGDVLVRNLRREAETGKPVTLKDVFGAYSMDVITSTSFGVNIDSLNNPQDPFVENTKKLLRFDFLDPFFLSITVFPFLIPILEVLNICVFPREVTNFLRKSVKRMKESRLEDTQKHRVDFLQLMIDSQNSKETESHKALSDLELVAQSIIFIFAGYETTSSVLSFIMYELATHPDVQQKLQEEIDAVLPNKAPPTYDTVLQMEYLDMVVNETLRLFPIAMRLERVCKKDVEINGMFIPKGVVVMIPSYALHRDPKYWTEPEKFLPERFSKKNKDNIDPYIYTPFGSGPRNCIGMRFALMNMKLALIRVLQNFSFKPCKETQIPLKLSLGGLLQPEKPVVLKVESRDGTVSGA

caspase-1 = molecular target: T1, caspase-1 (Homo sapiens, UniProt P29466); conditions: healthy and disease states; cited from earlier work
T1 sequence (P29466 120-297 limits assumed): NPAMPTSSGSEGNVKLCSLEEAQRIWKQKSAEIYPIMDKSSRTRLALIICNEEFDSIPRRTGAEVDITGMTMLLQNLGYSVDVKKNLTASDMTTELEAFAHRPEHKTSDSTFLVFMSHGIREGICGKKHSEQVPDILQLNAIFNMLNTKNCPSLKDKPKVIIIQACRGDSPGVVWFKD
T1 sequence (P29466 317-404 limits assumed): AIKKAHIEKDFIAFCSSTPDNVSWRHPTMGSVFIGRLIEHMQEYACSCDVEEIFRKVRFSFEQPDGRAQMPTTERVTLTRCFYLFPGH

[6] = tested on: CD4 T-cell pyroptotic death in HIV-infected lymphoid tissues; conditions: dose-dependent; cited from earlier work
[7] = in vivo; cited from earlier work; remark: listed apart in the source
[8] = dogs at 2000 mg/kg/day; cited from earlier work
[9] = in vivo
IL-1B = conditions: cited from earlier work
IL-18 = conditions: cited from earlier work; for inhibition of IL-18: during the duration of the study
SARS-CoV = conditions: in vitro; cited from earlier work
COVID-19 = conditions: mild to moderate COVID-19 at high risk of progressing to severe disease; cited from earlier work
SARS-CoV-2 = conditions: human, in vivo; cited from earlier work
SARS = conditions: 400 mg and 100 mg added to ribavirin vs historical control; cited from earlier work

## CCN(CCO)CCCC(C)Nc1ccnc2cc(Cl)ccc12 (centres unmarked) [Hydroxychloroquine]
SARS-CoVid-2 infection
  viral loads vs control patients: Viral loads appeared to diminish faster

## CC(C)(C)C(NC(=O)c1ccc(N)c(Cl)c1)C(=O)N1CCCC1C(=O)NC(C=O)CC(=O)O (centres unmarked) [II]
[1]
  concentration at which Lipopolysaccharide stimulated IL-1B production is 50% suppressed: 0.8 µg/mL
CYP; in vitro studies
  CYP-mediated metabolism as route of clearance: not a major route of clearance
[2]; active form
  bioavailability: poor bioavailability
[2]
  in vivo activity: less than optimal in vivo activity

## CC(C)[C@@]1(C(=O)N[C@H]2CC(=O)O[C@]2(O)CF)CC(c2nccc3ccccc23)=NO1 [Nivocasan]
Chronic HCV
  reason for termination of Phase IIb: significant laboratory abnormalities
[3]
  ALT levels: Reductions in ALT levels in NASH

## CCO[C@@H]1OC(=O)C[C@@H]1NC(=O)[C@@H]1CCCN2C(=O)CC[C@H](NC(=O)c3nccc4ccccc34)C(=O)N12 [Pralnacasan]
[4]
  clinical trial outcome in rheumatoid arthritis and osteoarthritis: amelioration of RA, but not
[5]
  reason for termination in Phase IIb in RA: liver toxicity in animals (102)

## CCO[C@@H]1OC(=O)C[C@@H]1NC(=O)[C@@H]1CCCN1C(=O)[C@@H](NC(=O)c1ccc(N)c(Cl)c1)C(C)(C)C [belnacasan]
CYP3A4
  metabolism by CYP3A4: metabolized by CYP3A4
caspase-1
  effect of blocking caspase-1: prevent production of IL-1β, IL-18, and pyroptosis
CYP
  CYP-mediated metabolism as route of clearance: not a major route of clearance
[6]
  CD4 T-cell pyroptotic death: Prevents CD4 T-cell
[2]
  in vivo activity: better in vivo activity
[7]
  adverse effects reported in humans: mild and mainly include headache, nausea, lethargy and dizziness
  seizure: reported in more than one patient
  severity of adverse events (CTCAE): mild and of no consequence (grade 1 and 2 by CTCAE criteria)
[8]
  only preclinical finding on toxicity studies: reduction of the heart rate
[9]
  dog dose estimated as multiple of the maximum dose in this study: 10-25 times
IL-1B; single oral dose of 400 mg
  suppression of IL-1B: 50%
IL-1B; single oral dose of 800 mg
  suppression of IL-1B: 80%
IL-1B; single oral dose of 1600 mg
  suppression of IL-1B: 80%
IL-18; 900 mg TID
  inhibition of IL-18: 60%
IL-18; 1200 mg TID
  inhibition of IL-18: 60%
IL-18; 1800 mg TID
  inhibition of IL-18: 60%
IL-18; healthy controls
  inhibition of IL-18 over 14 days as compared to placebo: gradual but marked inhibition

## Cc1cccc(C)c1OCC(=O)N[C@@H](Cc1ccccc1)[C@@H](O)C[C@H](Cc1ccccc1)NC(=O)[C@H](C(C)C)N1CCCNC1=O [lopinavir]
SARS-CoV
  activity against SARS-CoV: in vitro inhibitory activity

## bamlanivimab: monoclonal antibody for COVID-19
COVID-19
  efficacy: efficacious

## casirivimab: monoclonal antibody for COVID-19
COVID-19
  efficacy: efficacious

## imdevimab: monoclonal antibody for COVID-19
COVID-19
  efficacy: efficacious

## lopinavir—ritonavir
SARS-CoV-2
  clinical symptoms, mortality, viral loads vs standard of care alone: no improvement in clinical symptoms, mortality, or viral loads
SARS
  risk of adverse clinical outcomes (ARDS or death) and viral load: reduced the risk of adverse clinical outcomes
